Results taken from US20200095296A1, “USE OF PEPTIDES AS BIOMARKERS IN THE DIAGNOSIS, CONFIRMATION AND TREATMENT OF A NEUROLOGICAL DISORDER AND TCR AND/OR HLA IMMUNOPROFILING IN NEURODEGENERATIVE DISEASE” (THE TRUSTEES OF COLUMBIA UNIVERSITY IN THE CITY OF NEW YORK, priority 2017, published 2020).
Positions count from the first letter of the chain named. Read-outs that look alike come from different tables or passages of the source.

How the values were obtained:
[1] = target: T1, DPB1*05:01 (Homo sapiens, UniProt P04440+P20036, A65V/A84E/F191V/F64L/G113D/G114E/K142R/L158P/M116V/M62Q/P115A/Q81R/R125K/T114A/T199I/T259P/V234M); test: competition binding assay, purified HLA DPB1*05:01
T1 sequence (P20036 29-260 M62Q/Q81R/T114A/K142R/L158P/F191V/T259P): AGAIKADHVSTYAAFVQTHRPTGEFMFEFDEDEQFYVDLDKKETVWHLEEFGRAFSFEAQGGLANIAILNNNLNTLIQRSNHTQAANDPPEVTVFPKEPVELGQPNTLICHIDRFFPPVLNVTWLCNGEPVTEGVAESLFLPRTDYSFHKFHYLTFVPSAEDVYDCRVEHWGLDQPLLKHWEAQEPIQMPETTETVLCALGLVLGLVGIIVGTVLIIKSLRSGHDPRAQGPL
T1 sequence (P04440 30-258 F64L/A65V/A84E/G113D/G114E/P115A/M116V/R125K/T199I/V234M): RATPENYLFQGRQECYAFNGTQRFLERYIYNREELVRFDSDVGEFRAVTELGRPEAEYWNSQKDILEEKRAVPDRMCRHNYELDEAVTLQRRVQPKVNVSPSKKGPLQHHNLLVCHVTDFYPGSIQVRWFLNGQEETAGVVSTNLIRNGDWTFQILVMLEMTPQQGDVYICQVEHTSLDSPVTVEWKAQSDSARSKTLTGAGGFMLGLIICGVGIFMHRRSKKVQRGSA

[2] = target: T2, DPB1*04:02 (Homo sapiens, UniProt P04440+P20036, A65V/A84D/A85E/L207M); test: competition binding assay, purified HLA DPB1*04:02
T2 sequence (P04440 30-258 A65V/A84D/A85E/L207M): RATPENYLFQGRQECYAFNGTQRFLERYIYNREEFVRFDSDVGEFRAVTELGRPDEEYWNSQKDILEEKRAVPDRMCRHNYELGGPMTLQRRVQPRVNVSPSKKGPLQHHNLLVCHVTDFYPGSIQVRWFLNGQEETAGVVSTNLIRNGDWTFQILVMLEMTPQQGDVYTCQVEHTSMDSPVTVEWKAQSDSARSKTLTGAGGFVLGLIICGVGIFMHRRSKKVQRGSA
T2 sequence (P20036 29-260): T1 sequence (P20036 29-260 M62Q/Q81R/T114A/K142R/L158P/F191V/T259P) with Q34M, R53Q, A86T, R114K, P130L, V163F, P231T

[3] = target: T3, DPB1*03:01 (Homo sapiens, UniProt P04440+P20036, A65V/A84D/A85E/E86D/F38Y/G113D/G114E/G40L/I94L/L37V/M105V/M116V/P115A/R125K/T199I); test: competition binding assay, purified HLA DPB1*03:01; settings: purified HLA, radiolabeled peptide competition; nM; read-out: binding to DPB1*03:01 (IC50)
T3 sequence (P20036 29-260): T1 sequence (P20036 29-260 M62Q/Q81R/T114A/K142R/L158P/F191V/T259P) with Q34M, R53Q, A86T, R114K, P130L, V163F, P231T
T3 sequence (P04440 30-258 L37V/F38Y/G40L/A65V/A84D/A85E/E86D/I94L/M105V/G113D/G114E/P115A/M116V/R125K/T199I): T1 sequence (P04440 30-258 F64L/A65V/A84E/G113D/G114E/P115A/M116V/R125K/T199I/V234M) with L8V, F9Y, G11L, L35F, E55D, A56E, E57D, I65L, M76V, M205V

[4] = target: T4, DPB1*04:01 (Homo sapiens, UniProt P04440); test: competition binding assay, purified HLA DPB1*04:01
T4 sequence (P04440 30-258): T2 sequence (P04440 30-258 A65V/A84D/A85E/L207M) with V36A, D55A, E56A, M178L
T4 sequence (P20036 29-260 partner): T1 sequence (P20036 29-260 M62Q/Q81R/T114A/K142R/L158P/F191V/T259P) with Q34M, R53Q, A86T, R114K, P130L, V163F, P231T

[5] = target: T5, DPB1*02:01 (Homo sapiens, UniProt P04440+P20036, A65V/A84D/A85E/K98E); test: competition binding assay, purified HLA DPB1*02:01
T5 sequence (P20036 29-260): T1 sequence (P20036 29-260 M62Q/Q81R/T114A/K142R/L158P/F191V/T259P) with Q34M, R53Q, A86T, R114K, P130L, V163F, P231T
T5 sequence (P04440 30-258 A65V/A84D/A85E/K98E): T2 sequence (P04440 30-258 A65V/A84D/A85E/L207M) with K69E, M178L

[6] = target: DRB4*01:01 (Homo sapiens, UniProt P01903+P13762, G164S); test: competition binding assay, purified HLA DRB4*01:01; settings: purified HLA, radiolabeled peptide competition; nM; read-out: binding to DRB4*01:01 (IC50)
[7] = target: DRB5*01:01 (Homo sapiens, UniProt P01903+Q30154); test: competition binding assay, purified HLA DRB5*01:01; settings: purified HLA, radiolabeled peptide competition; nM; read-out: binding to DRB5*01:01 (IC50)
[8] = tested on: PBMC; test: IFNγ and IL-5 dual ELISPOT after 14 days culture of PBMC with α-syn peptide pools; format: cell-based, human; settings: IFNγ and IL-5 ELISPOT
Method: To determine whether α-syn derived peptides were recognized by T cells, responses were assayed to pools that each contained ˜twenty 9-10aa peptides predicted to bind common HLA class I types 15, and 15aa peptides spanning the protein that could elicit HLA class II responses. PBMCs from PD and HC were stimulated for 14 days, and IFNγ and IL-5 responses were measured by dual color ELISPOT, enabling quantification of responsive cells. Positive pools were deconvoluted to identify the peptides eliciting cytokine responses. IFNγ was used as a representative cytokine to detect CD8+/HLA class I and CD4+ Th1/Class II T cells, and IL-5 as a representative cytokine secreted by CD4+ Th2/Class II T cells. […] No cells producing both IL-5 and IFNγ were detected. […]
After 14 days of culture with individual peptide pools (5 μg/ml), the response to pools and individual peptides (5 μg/ml) was measured by IFNγ and IL-5 dual ELISPOT 37. […]
To determine whether α-syn-derived peptides were recognized by T cells, responses to pools that each contained approximately twenty peptides of 9-10 amino acids (a.a.) predicted to bind common HLA class I types, (Vita, R. et al. The immune epitope database (IEDB) 3.0. Nucleic Acids Res. 43, D405-D412 (2015)) and peptides of 15 amino acids spanning the protein that could elicit HLA class II responses were assayed. […] No cells producing both IL-5 and IFNγ were detected. […]

[9] = target: HLA A*11:01 (Homo sapiens, UniProt P04439, A114D/D185E/E176A/F33Y/L180Q/S129P/T187R); test: competition binding assay, purified HLA A*11:01 molecules; settings: in vitro
[10] = purified HLA, radiolabeled peptide competition, nM, read-out: binding to DPB1*05:01 (IC50)
[11] = purified HLA, radiolabeled peptide competition, nM, read-out: binding to DPB1*04:02 (IC50)
[12] = purified HLA, radiolabeled peptide competition, nM, read-out: binding to DPB1*04:01 (IC50)
[13] = purified HLA, radiolabeled peptide competition, nM, read-out: binding to DPB1*02:01 (IC50)

Compound | IC50 [1, 10] [nM] | IC50 [2, 11] [nM] | IC50 [3] [nM] | IC50 [4, 12] [nM] | IC50 [5, 13] [nM] | also measured
CSCC[C@H](NC(=O)[C@@H](N)CCC(=O)O)C(=O)N1CCC[C@H]1C(=O)N[C@@H](CO)C(=O)N[C@@H](CCC(=O)O)C(=O)N[C@@H](CCC(=O)O)C(=O)NCC(=O)N[C@@H](Cc1ccc(O)cc1)C(=O)N[C@@H](CCC(N)=O)C(=O)N[C@@H](CC(=O)O)C(=O)N[C@@H](Cc1ccc(O)cc1)C(=O)N[C@@H](CCC(=O)O)C(=O)N1CCC[C@H]1C(=O)N[C@@H](CCC(=O)O)C(=O)N[C@@H](C)C(=O)O | > 10000 | > 10000 | > 10000 | > 10000 | > 10000 | 
CC(C)C[C@H](NC(=O)[C@@H](NC(=O)CNC(=O)[C@H](CCC(=O)O)NC(=O)[C@H](CCCCN)NC(=O)[C@@H](NC(=O)[C@@H](N)CCCCN)[C@@H](C)O)C(C)C)C(=O)N[C@@H](Cc1ccc(OP(=O)(O)O)cc1)C(=O)N[C@H](C(=O)NCC(=O)N[C@@H](CO)C(=O)N[C@@H](CCCCN)C(=O)N[C@H](C(=O)N[C@@H](CCCCN)C(=O)N[C@@H](CCC(=O)O)C(=O)O)[C@@H](C)O)C(C)C |  |  |  |  |  | IC50 [1]: 777 nM; IC50 [2]: 1600 nM; IC50 [4]: 937 nM; IC50 [5]: 620 nM
CSCC[C@H](NC(=O)[C@H](CCC(=O)O)NC(=O)[C@H](Cc1ccc(O)cc1)NC(=O)[C@H](C)NC(=O)[C@H](CCC(=O)O)NC(=O)[C@H](CC(N)=O)NC(=O)[C@H](CC(=O)O)NC(=O)[C@@H]1CCCN1C(=O)[C@H](CC(=O)O)NC(=O)[C@@H](NC(=O)[C@@H]1CCCN1C(=O)[C@@H](N)CCSC)C(C)C)C(=O)N1CCC[C@H]1C(=O)N[C@@H](CO)C(=O)N[C@@H](CCC(=O)O)C(=O)O | > 10000 | > 10000 | > 10000 | > 10000 | > 10000 | 
CSCC[C@H](NC(=O)[C@H](CCC(=O)O)NC(=O)[C@H](Cc1ccc(O)cc1)NC(=O)[C@H](C)NC(=O)[C@H](CCC(=O)O)NC(=O)[C@H](CC(N)=O)NC(=O)[C@H](CC(=O)O)NC(=O)[C@@H]1CCCN1C(=O)[C@H](CC(=O)O)NC(=O)[C@@H](NC(=O)[C@@H]1CCCN1C(=O)[C@@H](N)CCSC)C(C)C)C(=O)N1CCC[C@H]1C(=O)N[C@@H](COP(=O)(O)O)C(=O)N[C@@H](CCC(=O)O)C(=O)O | > 10000 | > 10000 | > 10000 | > 10000 | > 10000 | IC50 [6]: > 10000 nM; IC50 [7]: > 10000 nM
GKTKEGVLYVGSKTK [α-syn 15 mer aa31-45, Y39 region] |  |  |  |  |  | cytokine response elicited [8]: apparent Class II restricted IL-5 and IFNγ response; cytokine response elicited ([8]; listed as GKEGVLYVGSKTK): apparent class II restricted IL-5 and IFNy response
GVLYVGSKTK [α-syn 10 mer aa36-45] |  |  |  |  |  | binding to purified HLA A*11:01 molecules (IC50) [9]: bound poorly
VLYVGSKTKK [10 mer aa37-46] |  |  |  |  |  | binding to purified HLA A*11:01 molecules (IC50) [9]: bound poorly
